# In patent US20140241995A1, “MICROPATCH FOR ASSESSING CHEMICAL CONTACT ALLERGY” (priority 2011, published 2014):
# “And” between values parts separate entries of the source, which are not always exact repeats. Equal entries are not always repeated. Where two headings read alike, the source gives them in different places.
# Legend:
# [1] = tested on: subjects; conditions: cited from earlier work
# [2] = tested on: volunteers with a positive history of contact allergy to p-phenylenediamine; assay: Occluded patch test with p-phenylenediamine in petrolatum at treatment diameters of 8, 4, 3 and 2 mm; assay type: in vivo, human; conditions: 0.1% or 1.0% in petrolatum, under occlusion, diameters 8, 4, 3, 2 mm; reactions at 48 h, 72 h and/or 96 h
# Description: 15 volunteers with a positive history of contact allergy to p-phenylenediamine were recruited. Contact allergy to p-phenylenediamine was determined based on their response to a standard 48 h, 8 mm diagnostic patch test with 1% p-phenylenediamine in petrolatum. According to their known sensitivity, these volunteers were tested with either 0.1% or 1.0% p-phenylenediamine in petrolatum, under occlusion, with treatment diameters of 8, 4, 3, and 2 mm. Reactions at 48 h, 72 h and/or 96 h were recorded using the Internationally accepted dermatology grading scale of N, ?+, +, ++. The responses were transposed into numerical values (0-3 respectively) and summated. The summated scores are presented below.
# [3] = tested on: patch tested subjects; conditions: PPD patch testing, cited from earlier work
SMILES,"% sensitised ([1]; Row 1: diameter 3 cm, area 7.1 cm^2, total 1000 μg, 142 μg/cm^2) [%]","% sensitised ([1]; Row 2: diameter 3 cm, area 7.1 cm^2, total 500 μg, 71 μg/cm^2) [%]","% sensitised ([1]; Row 3: diameter 3 cm, area 7.1 cm^2, total 250 μg, 35.4 μg/cm^2) [%]","% sensitised ([1]; Row 4: diameter 3 cm, area 7.1 cm^2, total 125 μg, 17.1 μg/cm^2) [%]","% sensitised ([1]; Row 5: diameter 3 cm, area 7.1 cm^2, total 62.5 μg, 8.8 μg/cm^2) [%]","% sensitised ([1]; Row 6: diameter 1.5 cm, area 1.8 cm^2, total 62.5 μg, 35.4 μg/cm^2)","% sensitised ([1]; Row 7: diameter 2.1 cm, area 3.5 cm^2, total 58 μg, 16.4 μg/cm^2) [%]","% sensitised ([1]; Row 8: diameter 3 cm, area 7.1 cm^2, total 116 μg, 16.4 μg/cm^2) [%]","% sensitised ([1]; Row 9: diameter 4.25 cm, area 14.2 cm^2, total 232 μg, 16.4 μg/cm^2) [%]","% sensitised ([1]; Row 10: l cm paper, area 0.8 cm^2, total 30 μg, 38 μg/cm^2) [%]","% sensitised ([1]; Row 11: 3 mm paper, area 0.08 cm^2, total 3 μg, 38 μg/cm^2) [%]",impact of reduced patch test diameter on the reaction intensity observed [2],rate of sensitization caused by the test ([3]; Dawe et al. 2004),incidence of active sensitization ([3]; Devos and van der Valk 2001) [%]
"O=[N+]([O-])c1ccc(Cl)c([N+](=O)[O-])c1 [DNCB, 2,4-dinitrochlorobenzene]",100,100,83,63,8,85% and 86%,55,50,66,93,26,–,–,–
"Nc1ccc(N)cc1 [PPD, para-phenylenediamine]",–,–,–,–,–,–,–,–,–,–,–,no detectable impact,less than 0.2%,1.5
